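Step 1: Grow cells in 96-well plates. Step 2: Expose to compound for 48 hours at 5 concentrations. Step 3: Interpolate endpoints linearly; if unreached, use highest concentration. Here, GI50 denotes the concentration required for 50% inhibition of growth. TGI denotes the concentration required for complete inhibition of growth.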
How the values were obtained:
Experiment in all cases: DTP human tumour cell line panel, 48 h
[1] = test system: CAKI-1 renal
[2] = test system: EKVX NSCLC
[3] = test system: T-47D breast
[4] = test system: SNB-75 CNS
[5] = test system: UACC-62 melanoma
[6] = test system: HCC-2998 colon
[7] = test system: SK-MEL-2 melanoma
[8] = test system: OVCAR-3 ovarian
[9] = test system: OVCAR-4 ovarian
[10] = test system: HCT-116 colon

SMILES | TGI [1] | TGI [2] | TGI [3] | TGI [4] | TGI [5] | TGI [6] | TGI [7] | TGI [8] | TGI [9] | TGI [10] | GI50 [1] | GI50 [2] | GI50 [3] | GI50 [4] | GI50 [5] | GI50 [6] | GI50 [7] | GI50 [8] | GI50 [9] | GI50 [10]
CCOP(=O)(Nc1ccc2oc(=O)c3ccccc3c2c1)OCC | > 100 µM | > 100 µM | > 100 µM | > 100 µM | > 100 µM | > 100 µM | > 100 µM | > 100 µM | > 100 µM | > 100 µM |  |  |  |  |  |  |  |  |  | 
CSc1ccc(C(=O)C(=O)c2ccc(SC)s2)s1 | > 10 µM | > 10 µM | > 10 µM | > 10 µM | > 10 µM | > 10 µM | > 10 µM | > 10 µM | > 10 µM | > 10 µM |  |  |  |  |  |  |  |  |  | 
O=c1[nH]c2ccccc2n1-c1n[nH]c2ccccc12 | > 100 µM | > 100 µM | 98.2 µM | > 100 µM | 96.7 µM | > 100 µM | > 100 µM | > 100 µM | > 100 µM | 67.5 µM | 25.3 µM | 29.7 µM | 29.5 µM | 41.9 µM | 33.6 µM | 31.9 µM | 29.3 µM | 27.5 µM | 41.3 µM | 24.6 µM
CC/C=C\C/C=C\C[C@H](O)C/C=C1/C(=O)C=C[C@@H]1C/C=C\CCCC(=O)OC | 14.5 µM | 10.9 µM | 9.38 µM | 24.6 µM | 2.85 µM | 3.48 µM | 3.79 µM | 2.2 µM | 20.2 µM | 2.29 µM | 3.41 µM | 3.15 µM | 2.1 µM | 11.3 µM | 0.714 µM | 2.03 µM | 1.72 µM | 0.799 µM | 4.06 µM | 0.841 µM
CCOc1cc(-c2ccc[nH]2)[nH]c1/C=C1\N=C(C)C(C(=O)OC)=C1C | 0.194 µM | 2.3 µM | 0.367 µM | 0.3 µM | 0.0581 µM | 1.34 µM | 0.0893 µM | 1.04 µM | 1.45 µM | 1.08 µM | 0.0331 µM | 0.235 µM | 0.0311 µM | 0.0364 µM | 0.024 µM | 0.0442 µM | 0.0256 µM | 0.0329 µM | 0.0449 µM | 0.0188 µM
COc1cnc2cc(C(=O)O)c3ccccc3c2c1 | > 100 µM | > 100 µM | > 100 µM | > 100 µM | > 100 µM | > 100 µM | > 100 µM | > 100 µM | > 100 µM | > 100 µM |  |  |  |  |  |  |  |  |  | 
COc1cc(/C=C(\C#N)C(N)=C(C#N)C#N)cc(O)c1O | > 100 µM | > 100 µM | > 100 µM | > 100 µM | > 100 µM | > 100 µM | > 100 µM | > 100 µM | > 100 µM | > 100 µM |  |  |  |  |  |  |  |  |  | 
CC1(C)OC2C(COS(N)(=O)=O)SC(n3cnc4cncnc43)C2O1 (stereo not given) | > 100 µM | > 100 µM | > 100 µM | > 100 µM | > 100 µM | > 100 µM | > 100 µM | > 100 µM | > 100 µM | > 100 µM | > 100 µM | > 100 µM | > 100 µM | > 100 µM | > 100 µM | > 100 µM | > 100 µM | > 100 µM | > 100 µM | > 100 µM
Oc1[nH]c2cc(Cl)ccc2c1/C=c1/ccc2c(c1)N=C(c1cc(F)cc(F)c1)N=2 | 16.6 µM | 32.4 µM | 17.7 µM | 6.07 µM | 12.4 µM | 17.2 µM | 7.03 µM | 3.3 µM | 16.1 µM | 3.17 µM | 1.73 µM | 5.27 µM | 4.27 µM | 1.6 µM | 0.71 µM | 4.86 µM | 2.08 µM | 1.41 µM | 4.25 µM | 1.17 µM
Oc1ccc(Cl)cc1Cc1cc(Cl)ccc1O | 9.38 µM | 8.84 µM | 7.3 µM | 24.2 µM | 10.5 µM | 5.78 µM | 5.02 µM | 8.35 µM | 11.9 µM | 7.08 µM | 2.8 µM | 2.65 µM | 2.18 µM | 4.09 µM | 2.77 µM | 2.36 µM | 2.21 µM | 2.63 µM | 2.84 µM | 2.6 µM
